Experimental data: BindingDB's records for doi:10.1016/s0960-894x(98)00132-2 (Green Cross Research Laboratories, 1999)

target: Chymotrypsinogen A (Bos taurus) (UniProt P00766); experiment: Compound was evaluated for inhibitory activity against Bovine Chymotrypsinogen

First: CC(C)(C)OC(=O)NC(CC(=O)O)C(=O)N1CCC[C@H]1C(=O)NC(Cc1ccccc1)C(=O)C(F)(F)C(=O)Nc1cccc(C(=O)O)c1 (stereo partly drawn) [3-(4-{[(S)-1-(2-tert-Butoxycarbonylamino-3-carboxy-propionyl)-pyrrolidine-2-carbonyl]-amino}-2,2-difluoro-3-oxo-5-phenyl-pentanoylamino)-benzoic acid]
Second: CC(C)(C)OC(=O)NC(CCC(=O)O)C(=O)N1CCC[C@H]1C(=O)NC(Cc1ccccc1)C(=O)C(F)(F)C(=O)Nc1cccc(C(=O)O)c1 (stereo partly drawn) [3-(4-{[(S)-1-(2-tert-Butoxycarbonylamino-4-carboxy-butyryl)-pyrrolidine-2-carbonyl]-amino}-2,2-difluoro-3-oxo-5-phenyl-pentanoylamino)-benzoic acid]
The Ki of the first is higher: greater than 100000 nM for the first, 1300 nM for the second.

First: CC(C)(C)OC(=O)NC(CCC(=O)O)C(=O)N1CCC[C@H]1C(=O)NC(Cc1ccccc1)C(=O)C(F)(F)C(=O)Nc1cc(C(=O)O)cs1 (stereo partly drawn) [5-(4-{[(S)-1-(2-tert-Butoxycarbonylamino-4-carboxy-butyryl)-pyrrolidine-2-carbonyl]-amino}-2,2-difluoro-3-oxo-5-phenyl-pentanoylamino)-thiophene-3-carboxylic acid]
Second: CC(C)(C)OC(=O)NC(CCC(=O)O)C(=O)N1CCC[C@H]1C(=O)NC(Cc1ccccc1)C(=O)C(F)(F)C(=O)Nc1cccc(C(N)=O)c1 (stereo partly drawn) [5-{(S)-2-[1-Benzyl-3-(3-carbamoyl-phenylcarbamoyl)-3,3-difluoro-2-oxo-propylcarbamoyl]-pyrrolidin-1-yl}-4-tert-butoxycarbonylamino-5-oxo-pentanoic acid]
The Ki of the first is higher: greater than 100000 nM for the first, 1220 nM for the second. The second binds more tightly here.

Going from `CC(C)(C)OC(=O)NC(CCC(=O)O)C(=O)N1CCC[C@H]1C(=O)NC(Cc1ccccc1)C(=O)C(F)(F)C(=O)Nc1cccc(S(N)(=O)=O)c1` (stereo partly drawn) [5-{(S)-2-[1-Benzyl-3,3-difluoro-2-oxo-3-(3-sulfamoyl-phenylcarbamoyl)-propylcarbamoyl]-pyrrolidin-1-yl}-4-tert-butoxycarbonylamino-5-oxo-pentanoic acid] to `CC(C)(C)OC(=O)NC(CCC(=O)O)C(=O)N1CCC[C@H]1C(=O)NC(Cc1ccccc1)C(=O)C(F)(F)C(=O)Nc1cccc(CC(=O)O)c1` (stereo partly drawn) [5-{(S)-2-[1-Benzyl-3-(3-carboxymethyl-phenylcarbamoyl)-3,3-difluoro-2-oxo-propylcarbamoyl]-pyrrolidin-1-yl}-4-tert-butoxycarbonylamino-5-oxo-pentanoic acid], the Ki rises from 1030 nM to 3950 nM (3.8-fold).
